Reference: patent US6958360B2, “Attractant pheromone for the Colorado potato beetle” (The United States of America as represented by the …, priority 2001, dated 2005)
“Also recorded” adds a separate entry of the source. Marks after values point to notes of the source that are not given here.

How the values were obtained:
[1] = test system: Colorado potato beetle (CPB); experiment: Open Y-track olfactometer laboratory behavioral bioassay, pheromone and plant volatile blends; format: in vivo, Leptinotarsa decemlineata
Experimental: Insects: All life stages were reared on potted potato plants kept in screened cages inside incubators set for 16L:8D, 25° C. during photophase, 23° C. during scotophase, and 80% R.H. Upon emergence adult beetles were kept individually in plastic cups with perforated plastic snap-on lids, and provided with clean pieces of paper toweling and potato foliage daily.
Bioassay apparatus and protocol: Stock solutions of test compounds, e.g. (S)-CPB I, and individual plant volatiles 2-phenylethanol, nonanal and (±)-linalool, were prepared at 10 μg/μl in hexane. Serial dilutions were made to obtain a test solution of 0.1 μg/μl. Each bioassay treatment of CPB I used a 10 μl aliquot of test solution, or a total of 1 μg of neat material. A […] stock solution of a 3-component blend of selected potato volatiles, (Z)-3-hexenyl acetate, linalool, and methyl salicylate, was prepared as follows: 8.3 μl of each was added to 975 μl of mineral oil, creating a solution of 25 μg of blend components/μl. This stock solution was diluted to obtain a solution of 2.5 μg of blend components/μl. Each bioassay treatment of blend used a 20 μl aliquot of test solution, or a total of 50 μg (16.67 μg/component) of the components.
Prior to testing at age 7-14 days, unmated insects were held individually in 5.5 oz. cups, provided with fresh potato foliage on a continuous basis, and maintained under incubator conditions of 16L:8D, 80-90% R.H., and “day” and “night” temperatures of 25° C. and 23° C., respectively. On the day of testing, insects were transferred to smaller 1 oz. cups and held for 1-3 hrs with moist filter paper but no foliage, then held in darkness for an additional 1-2 hrs.
Individual chemicals and chemical blends were tested for activity in an open Y-track olfactometer modified after Visser and Piron (1998) and described in detail by Dickens (1999; 2000; and Dickens, J. C., et al., Breaking a paradigm: male-produced aggregation pheromone for Colorado potato beetle. Journal of Experimental Biology, 205: 1925-1933 (2002)). In brief, odorous stimuli emanating from synthetic blends on filter paper discs (2.5 cm dia.; Whatman™ #1 filter paper) in 500 ml Ehrlenmeyer flasks were delivered to either side of the device. Test odorants were pipetted onto 3-cm diam. filter paper disks, which were then transferred, using long forceps, into the Erlenmeyer flasks used in the assay. If only a single test solution were being used per treatment, it was placed in the center of the filter paper; if 2 test solutions were being used per treatment, the mineral oil solution was placed in the center, and the hexane solution was spotted around the edge of the filter paper disk. Treatments were replaced after 30 minutes of testing in order to minimize variation in odor concentrations. The location of the chemical blend was switched from one side of the bioassay apparatus to the other side midway through each run in order to avoid bias not associated with the experimental treatment. Hydrocarbon free air that was humidified by passing through distilled water carried the odor molecules to either arm of the bioassay apparatus. Airflow was regulated to 1 l/min by flow meters. Experiments were conducted in a darkened room at 22° C. in which the only source of light was that associated with the bioassay device. For all bioassays at least 40 adults (20 males and 20 females) were tested. Orientation was scored as soon as the test insect had moved completely from the horizontal to one of the 45° angle extension arms of the bioassay device. Following each test, the bioassay device was cleaned with acetone to remove contamination left by the insect.
Statistical analysis: Laboratory bioassays were assessed for significant differences by the hypothesis on binomial proportions based on the standard normal approximation (Brase and Brase, 1983).

[2] = test system: Colorado potato beetle (CPB); experiment: Field test, baited pitfall traps; format: in vivo, Leptinotarsa decemlineata
Experimental: Insects: Insects were maintained under the same regimen as for laboratory bioassays. Prior to release in the field, adult CPB were combined into pint containers with moistened paper and potato foliage in groups of 25. Insects were removed from foliage ca. 3 hours prior to release.
Chemical treatments: (S)-CPB I vs. control. CPB I was dissolved into a carrier solution of 20% polyethylene glycol, 42% methanol, 25% glycerol, and 13% distilled water at a concentration of 1 μg/μl. For treatment lures, 500 μl were injected into 1″ long cigarette filters (500 μg CPBI/lure). Control lures consisted of 1″ cigarette filters treated with 500 μl of the carrier solution. Lures were prepared and placed into plastic zip-lock bags for transport to the field. (S)-CPB I+3-component plant blend vs. 3-component plant blend. (Z)-3-hexenyl acetate, (±)-linalool, and methyl salicylate (10 μl each) were added to 3 ml of the carrier solution for a total concentration of 1%. This solution was split into two 1.5 ml samples and CPB I dissolved into one of the samples at a concentration of 1 μg/μl. One treatment consisted of 500 μl of 1% 3-component plant blend injected into 1″ cigarette filters, 500 μl of 1% 3-component plant blend+1 μg/μl CPB I (500 μg CPB I/lure) injected into 1″ cigarette filters comprised the second treatment. Lures were prepared and placed into zip-lock bags for transport to the field.
Experimental procedure: Six pitfall traps (22 cm diam.×21 cm depth) were set in a hexagonal pattern 6 m diameter in an isolated grass field mowed one day prior to release of insects. One lure was attached to a 1 m vertical yellow posts set through the center of each pitfall trap, with treatment and controls alternating around the hexagonal array. Tacky-trap was laced along the rim of each pitfall trap, and on the center post at trap level, to prevent insect escape. […]
Statistical analysis: Field tests were assessed for significant differences by a paired t-test (Ostle, B., Statistics in Research (1963), 2nd ed., The Iowa State University Press, Ames, Iowa).

## CC(C)=CCC[C@](C)(O)C(=O)CO [(S)-CPB I, (S)-3,7-dimethyl-2-oxo-oct-6-ene-1,3-diol]
[1]; B = Control (solvent)
  Female % to A.: 90%**
  Male % to A.: 90%**
  Total % to A.: 90%**
[1]; B = Plant blend
  Female % to A.: 50%
  Male % to A.: 50%
  Total % to A.: 50%
[1]; comparator as in the treatment pair of Table 2
  attraction / preference (in words): attracted both male and female beetles; also recorded: no preference was shown for either attractant
[2]; 500 μg CPB I/lure, mean of three replicates, 100 released, control 2.67
  Mean number of CPB captured, Males: 9.00*
[2]; 500 μg CPB I/lure, mean of three replicates, control 1.33
  Mean number of CPB captured, Females: 7.33*
[2]; combined mean of six replicates, control 2.00
  Mean number of CPB captured, Total: 8.17**
